Measured values published in PubChem BioAssay (NCI).
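Protocol summary: plate cells (96-well), add compound at 5 concentrations, incubate 48 h, interpolate endpoints linearly. TGI: total growth inhibition.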

How the values were obtained:
Test in all cases: growth of human tumour cells (NCI), 48 h
[1] = tested on: RXF 393 renal
[2] = tested on: IGROV1 ovarian
[3] = tested on: KM12 colon
[4] = tested on: OVCAR-4 ovarian
[5] = tested on: OVCAR-8 ovarian
[6] = tested on: K-562 leukemia
[7] = tested on: UACC-257 melanoma
[8] = tested on: MCF7 breast
[9] = tested on: HOP-62 NSCLC
[10] = tested on: CCRF-CEM leukemia
[11] = tested on: SK-MEL-2 melanoma
[12] = tested on: HL-60(TB) leukemia
[13] = tested on: RPMI-8226 leukemia
[14] = tested on: MALME-3M melanoma
[15] = tested on: ACHN renal
[16] = tested on: BT-549 breast
[17] = tested on: UO-31 renal
[18] = tested on: A549 NSCLC
[19] = tested on: OVCAR-5 ovarian
[20] = tested on: SR leukemia

SMILES | TGI [1] [µM] | TGI [2] [µM] | TGI [3] [µM] | TGI [4] [µM] | TGI [5] [µM] | TGI [6] [µM] | TGI [7] [µM] | TGI [8] [µM] | TGI [9] [µM] | TGI [10] [µM] | TGI [11] [µM] | TGI [12] [µM] | TGI [13] [µM] | TGI [14] [µM] | TGI [15] [µM] | TGI [16] [µM] | TGI [17] [µM] | TGI [18] [µM] | TGI [19] [µM] | TGI [20] [µM]
CCN1C(=O)C(=Cc2ccc(-c3ccccc3)cc2)C(=O)N(CC)C1=S | > 100 | > 100 | > 100 | > 100 | > 100 | > 100 | > 100 | > 100 | > 100 | > 100 | > 100 | > 100 | > 100 | > 100 | > 100 | > 100 | > 100 | > 100 | > 100 | –
COc1ccc(C2NC3=C(CCCC3)C3(C#N)C(=O)N=C(N)C23C#N)cc1 (centres undefined) | > 100 | > 100 | > 100 | > 100 | > 100 | > 100 | > 100 | > 100 | > 100 | 91.9 | > 100 | > 100 | > 100 | > 100 | > 100 | > 100 | > 100 | > 100 | > 100 | –
CN(C)Cc1cc(N=Nc2ccccc2Cl)cc(CN(C)C)c1O | 88.3 | > 100 | > 100 | > 100 | > 100 | > 100 | 41.4 | > 100 | > 100 | 76.7 | – | 62.8 | > 100 | – | > 100 | > 100 | > 100 | > 100 | > 100 | > 100
O=C(CC(C(=O)c1cccs1)c1ccsc1)c1ccsc1 (centres undefined) | > 100 | > 100 | > 100 | > 100 | > 100 | > 100 | > 100 | > 100 | > 100 | > 100 | – | > 100 | > 100 | > 100 | > 100 | > 100 | > 100 | > 100 | > 100 | > 100
O=C1CC(CC(OCc2ccccc2)C(COCc2ccccc2)OCc2ccccc2)CC(=O)N1 (centres undefined) | > 100 | > 100 | > 100 | > 100 | > 100 | > 100 | > 100 | > 100 | > 100 | > 100 | – | > 100 | > 100 | 45.8 | > 100 | 49.8 | 58.5 | > 100 | > 100 | > 100
